Tests used:
[1] = test system: JAK2-dependent STAT5 phosphorylation; assay: Whole blood GM-CSF stimulation, STAT5 phosphorylation; assay type: cell-based, human; settings: patient samples
Protocol: For PD assessments, serial blood samples were drawn into lithium-heparin vacutainer tubes on Day 1 prior to dosing and again at 0.5, 1, 2, and 4 hours post-dose; on Day 8 at pre-dose and 2 hours post-dose; and Day 28 prior to dosing. Multiple assays were performed using the Day 1 and Day 8 PD samples. SYK-mediated BCR signaling in whole blood was measured prior to and post-dosing by stimulating 100 μL whole blood with 2 μL of anti-human IgD (IgG fraction) and 10 μg anti-human IgM for 10 minutes at 37° C., measuring the induction of pSYK Y525/526, pAKT S473, and pERK Y204. […] With blood samples from the CLL patients only, tumor cell surface expression of CD5, CD69, CD86, and CXCR4 pre-dose on days 1 and 28 were monitored. […] For each assay, data were collected using an LSR II instrument (BD Bioscience, San Jose, Calif.) and analyzed using Flowjo software (Flowjo LLC, Ashland, Oreg.). […]
The potency and selectivity for target inhibition following oral dosing in patients using a variety of whole blood assays was measured.

SU-DHL6 xenograft = SU-DHL6 xenograft in Nude mice; assay type: in vivo; settings: tumors treated with cerdulatinib
Protocol: Xenograft studies in Nude mice were performed to evaluate cerdulatinib and venetoclax in combination. Nude mice were inoculated with […] SU-DHL6 cells subcutaneously. Once tumors reached 200 mm^3, the mice were randomized into 4 groups: vehicle, cerdulatinib alone, venetoclax alone, or a combination of cerdulatinib and venetoclax.

With CCS(=O)(=O)N1CCN(c2ccc(Nc3ncc(C(N)=O)c(NC4CC4)n3)cc2)CC1 [cerdulatinib, 4-(cyclopropylamino)-2-((4-(4-(ethylsulfonyl)piperazin-1-yl)phenyl)amino)pyrimidine-5-carboxamide] the “inhibition of GM-CSF induced JAK2-dependent STAT5 phosphorylation” value [1] was “sparing JAK2”, the “Bim expression in tumors” value (SU-DHL6 xenograft) was “increase” and the MCL-1 in tumors (SU-DHL6 xenograft) was “no change”.
